Test results reported in PMC10451034, “Highly Efficient Photosensitizers with Molecular Vibrational Torsion for Cancer Photodynamic Therapy” (ACS Central Science, 2023).
pIC50: −log10 of the molar value.

Columns and labels:
[1] = Singlet oxygen quantum yield by DPBF decay curve method; type: physicochemical; details: for ΦΔ, singlet oxygen quantum yield: methylene blue as standard, 660 nm irradiation
Procedure: Afterward, the singlet oxygen yields of the series of molecules were preliminarily measured and analyzed by the 1,3-diphenylisobenzofuran (DPBF) decay curve method (Figures 2d,e and S2). […] Meanwhile, in order to exclude the effect of the rigid structure, ΦΔ of a Cy7-like reference molecule (TCy7C) with a rigidified structure but absence of an oxygen atom was measured. The singlet oxygen yield of TCy7C was 2.2%, even lower than that of TCy7 under the same conditions (Figure S3). […]
(§1) Photoexcited singlet oxygen production was detected by employed 1,3-diphenylisobenzofuran (DPBF) as the indicator. The absorbance of DPBF at 415 nm was regulated to about 1.0 in DCM. And the samples were irradiated with 660 nm light for various times, then the absorption spectra of different time nodes were recorded.
(§2) The singlet oxygen quantum yield (ΦΔ) was calculated by the following equation:
(§3) Where “Φ” represent the singlet oxygen quantum yield , “sam” and “std” represent QTCy7-R and MB, respectively. “m” is the slope of the absorbance of DPBF at 415 nm with time, F=1–10-O.D. (O.D. is the absorbance of samples at 660 nm). […]

HepG2 cells = assay: MTT cytotoxicity assay, HepG2; type: cell-based, human; details: for surviving cells: HepG2, dark, concentration around 160 μM; for pIC50: Homo sapiens
From the text: To further quantitatively explore the in vitro anticancer potency of QTCy7-R, the methyl thiazolyltetrazolium (MTT) assay was employed to detect cell viability. […] Next, we evaluated the cytotoxicity under dark conditions of this series of compounds at high concentrations (Figure 9e), as due to the characteristics of mitochondrial accumulation, QTCy7-Me and QTCy7-Ph might lead to mitochondrial depolarization and apoptosis at high concentrations. However, its IC50 value could still reach about 60 μM, which was almost […] than those of all cyanine photosensitizers reported. […] The photocytotoxicity index value (dark IC50/light IC50) of QTCy7-Ac was >500, manifesting that QTCy7-Ac is a PS with high efficacy but low cytotoxicity, which is extremely promising in clinical application. […]
Cytotoxicity was tested by the reduction of methyl thiazolyl tetrazolium to formazan by succinic acid dehydrogenase in the mitochondria of living cells (MTT assay). HepG2 cells, MCF7 cells and 4T1 cells were seeded to 96-well microplates (Nunc, Denmark) with a density of 1 × 10^5 cells/mL cells in 100 μL DMEM medium and incubated at 37 °C for 24 h. When the cell density reached about 70%, the QTCy7-R with different concentrations (4, 3, 2, 1.5, 1, 0.75, 0.5, 0.25, 0 μM) in PBS were added to the wells of cells in dark condition, respectively. For light groups, the cell incubation conditions were the same as those of the dark group and the cells were further incubated for 2 h, subsequently, the cells were subjected to 660 nm irradiation (20 mW/cm2) for different time (10 min, 5 min and 2.5 min) corresponding to different light doses (12 J/cm2, 6 J/cm2 and 3 J/cm2). Then all the cells were incubated for 12 h, after which the MTT solution in DMEM (0.5 mg/ml, 100 μL) was added to each well and the cells were incubated at 37 °C for another 4 h. The MTT solution was carefully removed and 100 μL DMSO was added to dissolve formazan, and the absorbance of each well was measured by a multifunctional microplate reader at 570 nm and 630 nm. The cell viability was obtained by the following equation: […]
Where “OD” represent the absorbance at 570 nm and 630 nm, “ps” and “control” represent experimental groups and control groups, respectively. […]

[2] = Triplet lifetime by laser flash photolysis; type: physicochemical; details: 5 μM in deaerated dichloromethane, λex = 610 nm
From the text: To probe the mechanism of the observed phenomenon and further validate our hypothesis, ultrafast excited-state dynamic behaviors were implemented by using femtosecond transient absorption spectroscopy (fs-TA) (Figures 3a and S4a–c). In order to obtain the complete process of excited states, a 350 nm laser was chosen as a pump to populate the high singlet excited states (Sn) from the ground state (S0). […] With the growth of delay time, the ESA of S1 gradually decayed (τ = 7.65 ps); meanwhile, beyond our expectation, accompanied by a particularly noticeable peak at ca. 583 nm increasing promptly, this new emerging ESA peak reached its maximum within about 21.98 ps. Similar phenomena were found in the transient spectra of the other three compounds (Figures S4d–f). However, for the control TCy7, there was no obvious formation of another ESA peak in transient spectra (Figure S5). […] Furthermore, the rate of X state formation was calculated to be 4.54 × 10^10 s^–1 for QTCy7-Ac based on the rise time (kX = 1/τX,rise), which was close to the order of magnitude of the intramolecular distorted vibration behavior. […] Meanwhile, the triplet lifetime of this series of molecules was evaluated and inspected for further applications (Figures 3d and S4g–i). […]
as §1, §2, §3
The triplet life of QTCy7-R was measured by LP980 laser flash photolysis spectrometer (Edinburgh Instruments Ltd.) in combination with a Nd:YAG laser (Surelite I-10, Continuum Electro-Optics, Inc.). […]

[3] = HepG2, light or radiation study, HepG2, 660 nm irradiation 12 J/cm^2

Row | SMILES | ΦΔ, singlet oxygen yield ([1]; in dichloromethane, DPBF method) [%] | ΦΔ, singlet oxygen quantum yield ([1]; in dichloromethane) | singlet oxygen yield relative to TCy7 ([1]; under NIR irradiation) [fold] | photocytotoxicity index (dark IC50/light IC50) (HepG2 cells; HepG2) | surviving cells (HepG2 cells) | pIC50 (HepG2 cells; HepG2, light or radiation study, HepG2, 660 nm irradiation 3 J/cm^2) | pIC50 (HepG2 cells; HepG2, light or radiation study, HepG2, 660 nm irradiation 6 J/cm^2) | pIC50 (HepG2 cells; [3]) | enhancement compared with commercial Ce6 photosensitizer (HepG2 cells; cell destruction at low light doses) [fold] | triplet lifetime [2] | pIC50 (HepG2 cells; HepG2, HepG2, dark conditions)
1 | CCOC(=O)C1=C/C(=C\C=C2/Sc3ccccc3N2CC)C(=O)C(/C=C/c2sc3ccccc3[n+]2CC)=C1 [QTCy7-Ac] | 33.8 | 0.338 | 13 | > 500 | 70–80% | ~5.70 | ~5.92 | ~6.52 | 11 |  | 
2 | CCN1/C(=C/C=C2\C=C(C=O)C=C(/C=C/c3sc4ccccc4[n+]3CC)C2=O)Sc2ccccc21 [QTCy7-CHO] |  | 0.263 |  |  | 70–80% |  |  | ~5.74 |  | about 2 μs | 
3 | CCN1/C(=C/C=C2\C=C(C)C=C(/C=C/c3sc4ccccc4[n+]3CC)C2=O)Sc2ccccc21 [QTCy7-Me] |  | 0.225 |  |  |  |  |  | ~6.05 |  | about 12 μs | ~4.22
4 | CCN1/C(=C/C=C2\C=C(c3ccccc3)C=C(/C=C/c3sc4ccccc4[n+]3CC)C2=O)Sc2ccccc21 [QTCy7-Ph] |  | 0.212 |  |  |  |  |  | ~6.52 |  | about 12 μs | ~4.22
